Patent publication US20240122179A1, “AUXINIC HERBICIDES AND METHODS OF USE THEREOF” (CORTEVA AGRISCIENCE LLC, priority 2021, published 2024)
Where two headings read alike, the source gives them in different places.

Experiments:
Assay in all cases: Postemergence herbicide evaluation, percent reduction in plant size vs untreated control, 21 days after treatment
Amaranthus rudis (AMATA) = assay type: in vivo, Amaranthus rudis (tall water hemp); settings: Amaranthus tuberculatus, post-emergence, 504 h, AMATA, postemergence, read-out: Control/Injury; for pest or weed control at 140 g/ha: rate 140 g ae/ha; for pest or weed control at 280 g/ha: rate 280 g ae/ha
Summary of the method: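 Greenhouse-grown tall waterhemp (25-28° C, 16 h light) at the 2-8 leaf stage, treated by track sprayer at 187 L/ha with compound at 140 or 280 g ae/ha in acetone/DMSO-based spray solution with crop oil and surfactant. 3-4 replicates per treatment, randomized complete block; plant size reduction versus untreated control measured 21 days after treatment.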

[1] = test system: Ambrosia artemisiifolia (AMBEL); assay type: in vivo, Ambrosia artemisiifolia (common ragweed); settings: post-emergence, 504 h, AMBEL, postemergence, read-out: Control/Injury; for pest or weed control at 140 g/ha: rate 140 g ae/ha; for pest or weed control at 280 g/ha: rate 280 g ae/ha
Summary of the method: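 Greenhouse-grown plants (25–28 °C, 16 h light) were sprayed postemergence at the 2–8 leaf stage with 140 or 280 g ae/ha in acetone/DMSO-based spray solution with crop oil and surfactant, at 187 L/ha by track sprayer. There were 3–4 replicates. Plant size was measured 21 days after treatment versus untreated plants.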

Kochia scoparia (KCHSC) = assay type: in vivo; settings: Bassia scoparia, post-emergence, 504 h, KCHSC, postemergence, read-out: Control/Injury; for pest or weed control at 140 g/ha: rate 140 g ae/ha; for pest or weed control at 280 g/ha: rate 280 g ae/ha
Summary of the method: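 Greenhouse-grown plants (25-28 °C, 16 h light) at the 2 to 8 leaf stage were track-sprayed postemergence at 140 or 280 g ae/ha in acetone/DMSO-based spray solution with crop oil and surfactant, at 187 L/ha, in 3-4 randomized replicates.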

[2] = test system: Amaranthus palmeri (AMAPA); assay type: in vivo, Amaranthus palmeri (Palmer amaranth); settings: post-emergence, 504 h, postemergence, read-out: Control/Injury; for pest or weed control at 140 g/ha: rate 140 g ae/ha; for pest or weed control at 280 g/ha: rate 280 g ae/ha
Summary of the method: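 Greenhouse-grown Palmer amaranth (25 to 28° C, 16 h light) sprayed postemergence at the 2 to 8 leaf stage with 140 or 280 g ae/ha in acetone/DMSO-based solution containing crop oil concentrate, 187 L/ha by track sprayer. Three to four replicates; plant size measured 21 days after treatment as percent reduction versus untreated control.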

[3] = test system: Conyza canadensis (L.) (ERICA); assay type: in vivo, Conyza canadensis (L.) (Horseweed); settings: Erigeron canadensis, post-emergence, 504 h, ERICA, postemergence, read-out: Control/Injury; for pest or weed control at 140 g/ha: rate 140 g ae/ha; for pest or weed control at 280 g/ha: rate 280 g ae/ha
Summary of the method: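 Horseshoe-weed (horseweed) seedlings at 2 to 8 leaf stage in greenhouse (25-28° C, 16 h light), sprayed postemergence at 140 or 280 g ae/ha in acetone/DMSO-based spray solution, 187 L/ha track-sprayer. Randomized complete block, 3-4 replicates; plant size measured 21 days after treatment as percent reduction vs untreated controls.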

[4] = percent reduction vs untreated, 21 days after treatment
[5] = R-AMAPA, percent reduction vs untreated control, 21 days after treatment
[6] = percent reduction vs untreated control, 21 days after treatment

Compound	pest or weed control at 140 g/ha (Amaranthus rudis (AMATA)) [%]	pest or weed control at 280 g/ha (Amaranthus rudis (AMATA)) [%]	pest or weed control at 140 g/ha [1] [%]	pest or weed control at 280 g/ha [1] [%]	pest or weed control at 140 g/ha (Kochia scoparia (KCHSC); [4]) [%]	pest or weed control at 280 g/ha (Kochia scoparia (KCHSC); [4]) [%]	pest or weed control at 140 g/ha ([2]; AMAPA) [%]	pest or weed control at 280 g/ha ([2]; AMAPA) [%]	pest or weed control at 140 g/ha [3] [%]	pest or weed control at 280 g/ha [3] [%]	pest or weed control at 140 g/ha (Kochia scoparia (KCHSC)) [%]	pest or weed control at 280 g/ha (Kochia scoparia (KCHSC)) [%]	pest or weed control at 140 g/ha [2, 5] [%]	pest or weed control at 280 g/ha [2, 5] [%]	pest or weed control at 140 g/ha [3, 6] [%]	pest or weed control at 280 g/ha [3, 6] [%]	pest or weed control at 140 g/ha [3, 4] [%]	pest or weed control at 280 g/ha [3, 4] [%]
COc1c(Cl)ccc(Cl)c1C(=O)OCc1cc(COC(=O)c2c(Cl)ccc(Cl)c2OC)cc(COC(=O)c2c(Cl)ccc(Cl)c2OC)c1 [Compound A-123]	0	8	5	5	0	0	2	3	0	0								
COc1c(Cl)ccc(Cl)c1C(=O)n1cnc2ccccc21 [Compound A-115]	15	38	5	28	8	13	20	38	3	13								
COc1c(Cl)ccc(Cl)c1C(=O)ONC(C)=O [Compound A-68]	23	40	55	58							58	82	42	52	8	23		
COc1c(Cl)ccc(Cl)c1C(=O)NNc1ccccc1 [Compound A-131]	40	30	48	58	30	38	23	38	28	30								
CCCCCCNC(=O)c1c(Cl)ccc(Cl)c1OC [Compound A-128]	3	8	3	5	0	0	3	5									3	5
COc1c(Cl)ccc(Cl)c1C(=O)Oc1ncn(-c2ccccc2)n1 [Compound A-121]	75	94	88	98	83	96	75	85	97	99								
COc1c(Cl)ccc(Cl)c1C(=O)NOC1CCCCO1 (stereo not drawn) [Compound A-100]	0	19	5	20	0	0	0	15	8	13								
COc1c(Cl)ccc(Cl)c1C(=O)Oc1noc2ccccc12 [Compound A-122]	38	50	73	97	80	93	28	45	95	100								
COc1c(Cl)ccc(Cl)c1C(=O)NNc1nc2ccccc2o1 [Compound A-109]	2	3	23	20	0	3	8	5	3	5								
